Source: the NIST ThermoML archive (doi:10.1016/j.jct.2007.09.007)
± gives the expanded uncertainty stated by the source.

Conditions: 101.33 kPa, Liquid

Row | mass density (288.15 K) | mass density (293.15 K) | mass density (298.15 K) | mass density (303.15 K) | Structure (SMILES)
1 | 1038.78 ± 0.24 kg/m3 | 1033.16 ± 0.23 kg/m3 | 1027.51 ± 0.22 kg/m3 | 1021.84 ± 0.21 kg/m3 | C1COCCO1 [1,4-dioxane]
2 | 728.82 ± 0.94 kg/m3 | 723.67 ± 0.95 kg/m3 | 718.46 ± 0.96 kg/m3 | 713.21 ± 0.97 kg/m3 | CC(C)OC(C)C [diisopropyl ether]
3 | 787.38 ± 0.23 kg/m3 | 782.01 ± 0.24 kg/m3 | 776.62 ± 0.24 kg/m3 | 771.19 ± 0.25 kg/m3 | CC#N [acetonitrile]
4 | 892.86 ± 0.33 kg/m3 | 887.52 ± 0.34 kg/m3 | 882.04 ± 0.35 kg/m3 | 876.54 ± 0.36 kg/m3 | C1CCOC1 [tetrahydrofuran]
